Results: paper PMC6380167, “Phosphoglycolate has profound metabolic effects but most likely no role in a metabolic DNA response in cancer cell lines” (Biochemical Journal, 2019)

Biological target: T1, enolase (Oryctolagus cuniculus, UniProt P25704)
T1 construct: gene ENO3; purified rabbit muscle enolase (Sigma)
Assay: coupled pyruvate kinase/lactate dehydrogenase enzyme assay, NADH absorption at […] nm
Format: biochemical

T1 sequence (P25704 2-434): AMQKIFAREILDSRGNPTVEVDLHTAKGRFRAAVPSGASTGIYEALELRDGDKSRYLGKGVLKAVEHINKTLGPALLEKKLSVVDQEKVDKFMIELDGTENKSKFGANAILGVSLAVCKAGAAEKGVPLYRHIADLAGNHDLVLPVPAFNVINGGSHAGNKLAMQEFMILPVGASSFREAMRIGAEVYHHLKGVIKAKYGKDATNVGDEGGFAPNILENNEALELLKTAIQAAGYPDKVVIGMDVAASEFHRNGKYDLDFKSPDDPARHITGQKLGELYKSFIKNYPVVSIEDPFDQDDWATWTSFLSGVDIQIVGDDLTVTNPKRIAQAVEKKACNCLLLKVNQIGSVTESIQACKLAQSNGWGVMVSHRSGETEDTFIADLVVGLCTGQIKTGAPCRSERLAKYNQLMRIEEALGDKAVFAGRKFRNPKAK

## O=C(O)COP(=O)(O)O [phosphoglycolate]
  Ki: ~160 µM
